Measured values taken from article PMC6465078 (Molecular pharmaceutics, 2018).
Where a name gives a salt, the structure may show the parent alone.

Columns and labels:
OSTα/β [1] = molecular target: T1, OSTα/β (Homo sapiens, UniProt Q86UW1); assay: Inhibition of OSTα/β-mediated DHEAS uptake in OSTα/β-overexpressing Flp-In 293; format: cell-based; details: for Maximal inhibition of OSTα/β-mediated DHEAS uptake: Method 1, up to 200 µM inhibitor; for Inhibition of OSTα/β-mediated DHEAS uptake (screening): Method 1 (10 min preincubation), test compound 100 µM; for Inhibition of OSTα/β-mediated DHEAS uptake: inhibitor 100 µM, DHEAS 20 µM
T1 sequence (Q86UW1 1-340): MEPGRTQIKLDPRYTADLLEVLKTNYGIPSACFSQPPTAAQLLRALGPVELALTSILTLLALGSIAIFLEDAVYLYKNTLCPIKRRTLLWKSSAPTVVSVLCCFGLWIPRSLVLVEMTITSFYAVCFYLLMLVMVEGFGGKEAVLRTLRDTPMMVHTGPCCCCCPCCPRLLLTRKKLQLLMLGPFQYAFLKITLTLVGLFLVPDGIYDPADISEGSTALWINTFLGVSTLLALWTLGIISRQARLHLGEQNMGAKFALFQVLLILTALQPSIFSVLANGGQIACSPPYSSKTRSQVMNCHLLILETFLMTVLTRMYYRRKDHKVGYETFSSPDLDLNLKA
T1 sequence (Q86UW2 1-128 partner): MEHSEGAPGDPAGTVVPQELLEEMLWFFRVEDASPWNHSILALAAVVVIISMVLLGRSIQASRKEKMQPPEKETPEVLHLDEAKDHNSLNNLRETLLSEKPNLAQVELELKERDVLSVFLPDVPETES

[2] = cited from earlier work
OSTα/β [3] = molecular target: T1, OSTα/β; assay: Inhibition of OSTα/β-mediated taurocholate; format: cell-based; details: for Inhibition of OSTα/β-mediated TCA uptake (statistical significance): Methods 1-3, method not specified; for inhibition at 100 µM: read-out: Inhibition of OSTα/β-mediated TCA uptake
OSTα/β [4] = details: single concentration of 100–1000 μM; cited from earlier work
OSTα/β [5] = details: cited from earlier work
ABCB11 = details: cited from earlier work
ABCC3 = details: cited from earlier work
OSTα/β [6] = molecular target: T1, OSTα/β; assay: Inhibition of OSTα/β-mediated digoxin uptake in OSTab cells; format: cell-based; details: read-out: Inhibition of OSTα/β-mediated digoxin uptake
OSTα/β [7] = molecular target: T1, OSTα/β; details: cell line ectopically expressing human OSTα/β; cited from earlier work
[8] = Concentration in hepatocyte cultures; format: in vitro ADME; details: equivalent of ~700 ng/mg protein
ABCC4 = details: cited from earlier work
[9] = cited from earlier work; remark: listed apart in the source
[10] = Flp-In-293, read-out: Inhibition of OSTα/β-mediated DHEAS uptake (screening)
[11] = Flp-In-293, read-out: Inhibition of OSTα/β-mediated DHEAS uptake
[12] = Method 2 (co-incubation only), 30 s uptake

Question: Which inhibition at 100 µM (OSTα/β [1]; [10]) does the source give for C#C[C@]1(OC(C)=O)CC[C@H]2[C@@H]3CCC4=CC(=NO)CC[C@@H]4[C@H]3CC[C@@]21CC (mixture of isomers) [norgestimate] here?
Answer: 35 to 64%

Question: And the “Maximal inhibition of OSTα/β-mediated DHEAS uptake” value (OSTα/β [1]; DHEAS 4 µM)?
Answer: less than 50%

Question: And the “Associated cases of DILI” value [2]?
Answer: more than 100 cases

Question: Which results are given for C[C@H](CCC(=O)NCCS(=O)(=O)O)[C@H]1CC[C@H]2[C@@H]3CC[C@@H]4C[C@H](OS(=O)(=O)O)CC[C@]4(C)[C@H]3CC[C@]12C [TLCAS, taurolithocholic acid sulfate]?
Answer: Stimulation of OSTα/β-mediated TCA uptake (OSTα/β [3]; Method 2 (co-incubation only), 100 µM, TCA 20 µM): ~ 25%; Inhibition of OSTα/β-mediated TCA uptake (statistical significance) (OSTα/β [3]; inhibitor 100 µM, TCA 20 µM): did not reach statistical significance; Inhibition of OSTα/β-mediated TCA and ES uptake (OSTα/β [4]): inhibited

Question: For CC1(C)S[C@@H]2[C@H](NC(=O)[C@H](N)c3ccc(O)cc3)C(=O)N2[C@H]1C(=O)O [amoxicillin], which “Inhibition of OSTα/β-mediated DHEAS uptake (screening)” value (shortened to “Inhibition … (screening)”) (OSTα/β [1]; DHEAS 4 µM, 30 s uptake) is on record?
Answer: decreased

Question: What about the “Associated cases of DILI” value [2] of the same compound?
Answer: more than 100 cases

Question: With O=C(O)[C@H]1/C(=C/CO)O[C@@H]2CC(=O)N21 [clavulanic acid] as the compound, how does the “Inhibition … (screening)” value (OSTα/β [1]; DHEAS 4 µM, 30 s uptake) read?
Answer: decreased

Question: And the “Associated cases of DILI” value [2]?
Answer: more than 100 cases

Question: For CC(C)/N=c1\cc2n(-c3ccc(Cl)cc3)c3ccccc3nc-2cc1Nc1ccc(Cl)cc1 [clofazimine], which “OSTα/β inhibitor identification in screen of 1,280 FDA-approved drugs” value (OSTα/β [5]) is on record?
Answer: OSTα/β inhibitor

Question: With C[C@H]1O[C@@H](O[C@H]2[C@@H](O)C[C@H](O[C@H]3[C@@H](O)C[C@H](O[C@H]4CC[C@@]5(C)[C@H](CC[C@@H]6[C@@H]5C[C@@H](O)[C@]5(C)[C@@H](C7=CC(=O)OC7)CC[C@]65O)C4)O[C@@H]3C)O[C@@H]2C)C[C@H](O)[C@@H]1O [digoxin] as the compound, how does the inhibition at 100 µM (OSTα/β [1]; [10]) read?
Answer: 5 to 23%

Question: For C[C@H]1c2cccc(O)c2C(=O)C2=C(O)[C@]3(O)C(=O)C(C(N)=O)=C(O)[C@@H](N(C)C)[C@@H]3[C@@H](O)[C@@H]21 [doxycycline], which inhibition at 100 µM (OSTα/β [1]; [10]) is on record?
Answer: ~19%

Question: With C#C[C@]1(O)CC[C@H]2[C@@H]3CCc4cc(O)ccc4[C@H]3CC[C@@]21C [ethinylestradiol] as the compound, how does the “Interaction with ABCB11” value (ABCB11; ref Supporting Table 1) read?
Answer: interact

Question: What about the “Interaction with ABCC3” value (ABCC3; ref Supporting Table 1) of the same compound?
Answer: interact

Question: What about the “Associated cases of DILI” value [2] of the same compound?
Answer: more than 100 cases

Question: With O=C1[C@H](CC[C@H](O)c2ccc(F)cc2)[C@@H](c2ccc(O)cc2)N1c1ccc(F)cc1 [ezetimibe] as the compound, how does the “Inhibition … (screening)” value (OSTα/β [1]; DHEAS 4 µM, 30 s uptake) read?
Answer: could not be reproduced

Question: What does the source list for CCc1c(Cl)c(O)c(Cl)c(O)c1C(=O)O[C@H]1[C@H](O)[C@H](OC)[C@H](OC/C2=C\C=C\C[C@H](O)/C(C)=C/[C@H](CC)[C@@H](O[C@@H]3OC(C)(C)[C@@H](OC(=O)C(C)C)[C@H](O)[C@@H]3O)/C(C)=C/C(C)=C/C[C@@H]([C@@H](C)O)OC2=O)O[C@@H]1C [fidaxomicin]?
Answer: Inhibition of ABCC3 (ABCC3): inhibit; Inhibition of OSTα/β-mediated TCA uptake (OSTα/β [3]; Method 2 (co-incubation only), inhibitor 100 µM, TCA 20 µM, 30 s uptake): > 70%; inhibition at 100 µM (OSTα/β [3]): > 70%; inhibition at 100 µM (OSTα/β [6]): 90%; inhibition at 100 µM (OSTα/β [1]; [10]): 71%; Inhibition of OSTα/β-mediated DHEAS uptake (OSTα/β [1]; Method 1 (10 min preincubation only), 30 s uptake): inhibited DHEAS uptake; Inhibition of OSTα/β-mediated TCA transport (OSTα/β [7]): inhibited

Question: With C[C@H](CCC(=O)NCC(=O)O)[C@H]1CC[C@H]2[C@@H]3[C@H](O)C[C@@H]4C[C@H](O)CC[C@]4(C)[C@H]3CC[C@]12C [glycochenodeoxycholate] as the compound, how does the “Maximal inhibition of OSTα/β-mediated DHEAS uptake” value (OSTα/β [1]; DHEAS 4 µM) read?
Answer: less than 50%

Question: For COc1ccc2c(c1)c(CC(=O)O)c(C)n2C(=O)c1ccc(Cl)cc1 [indomethacin], which “Inhibition of OSTα/β-mediated TCA uptake (statistical significance)” value (OSTα/β [3]; inhibitor 100 µM, TCA 20 µM) is on record?
Answer: did not reach statistical significance

Question: And the inhibition at 100 µM (OSTα/β [1]; [11])?
Answer: ~20%

Question: And the inhibition at 100 µM (OSTα/β [1]; [10])?
Answer: 5 to 23%

Question: And the “Inhibition of OSTα/β-mediated DHEAS uptake” value (OSTα/β [1]; [12])?
Answer: no inhibition

Question: For CC[C@H](C)C(=O)O[C@H]1C[C@@H](C)C=C2C=C[C@H](C)[C@H](CC[C@@H]3C[C@@H](O)CC(=O)O3)[C@H]21 [lovastatin], which inhibition at 100 µM (OSTα/β [1]; [10]) is on record?
Answer: ~21%

Question: With CCCN(CCC)S(=O)(=O)c1ccc(C(=O)O)cc1 [probenecid] as the compound, how does the inhibition at 100 µM (OSTα/β [1]; [10]) read?
Answer: 5 to 23%

Question: With CC(C)c1nc(N(C)S(C)(=O)=O)nc(-c2ccc(F)cc2)c1/C=C/[C@@H](O)C[C@@H](O)CC(=O)O [rosuvastatin] as the compound, how does the “Inhibition … (screening)” value (OSTα/β [1]; DHEAS 4 µM, 30 s uptake) read?
Answer: did not inhibit OSTα/β

Question: What does the source list for CC(=O)S[C@@H]1CC2=CC(=O)CC[C@]2(C)[C@H]2CC[C@@]3(C)[C@@H](CC[C@@]34CCC(=O)O4)[C@H]12 [spironolactone]?
Answer: inhibition at 100 µM (OSTα/β [3]): ~20%; Inhibition of OSTα/β-mediated TCA and ES uptake (OSTα/β [4]): inhibited; inhibition at 100 µM (OSTα/β [1]; [11]): ~20%; Inhibition of OSTα/β-mediated DHEAS uptake (OSTα/β [1]; [12]): no inhibition

Question: For O=C1OC(c2ccc(O)c(S(=O)(=O)O)c2)(c2ccc(O)c(S(=O)(=O)O)c2)c2c(Br)c(Br)c(Br)c(Br)c21 [sulfobromophthalein], which inhibition at 100 µM (OSTα/β [1]; [10]) is on record?
Answer: 5 to 23%

Question: Which “Inhibition of ABCB11” value (ABCB11) does the source give for Cc1c(C)c2c(c(C)c1OS(=O)(=O)O)CCC(C)(COc1ccc(CC3SC(=O)NC3=O)cc1)O2 (centres unmarked) [troglitazone sulfate] here?
Answer: inhibits

Question: What about the “Concentration in hepatocyte cultures, molar equivalent” value [8] of the same compound?
Answer: ~ 190 µM

Question: What about the “Inhibition of OSTα/β-mediated TCA transport” value (OSTα/β [7]) of the same compound?
Answer: inhibited

Question: And the “Inhibition of ABCC4” value (ABCC4)?
Answer: inhibits

Question: What about the “Concentration in hepatocyte cultures” value [9] of the same compound?
Answer: ~ 700 ng/mg protein

Question: What does the source list for Cc1c(C)c2c(c(C)c1O)CCC(C)(COc1ccc(CC3SC(=O)NC3=O)cc1)O2 (centres unmarked) [troglitazone]?
Answer: Inhibition of OSTα/β-mediated DHEAS uptake (screening) (OSTα/β [1]; DHEAS 4 µM, 30 s uptake): novel OSTα/β inhibitors; IC50 for inhibition of OSTα/β-mediated DHEAS uptake (OSTα/β [1]; Method 1, 0.125–200 µM inhibitor, DHEAS 4 µM, 30 s uptake): did not yield a consistent inhibition curve
